Experimental data as given in the Deep4Chem optical property database.

Assay: solvent given as SMILES

CC(C)(C)c1ccc(Oc2cc3c4c(cc(Oc5ccc(C(C)(C)C)cc5)c5c6c(Oc7ccc(C(C)(C)C)cc7)cc7c8c(cc(Oc9ccc(C(C)(C)C)cc9)c(c2c45)c86)C(=O)N(c2ccccc2)C7=O)C(=O)N(c2ccccc2)C3=O)cc1
absorption maximum (in ClC(Cl)Cl): 586 nm

N#Cc1ccccc1N1c2sc3ccccc3c2Sc2c1sc1ccccc21
absorption maximum (in ClCCl): 411 nm

CCCCC1C(=O)c2cc(Oc3ccc(C(C)(C)C)cc3)c3c4c(Oc5ccc(C(C)(C)C)cc5)cc5c6c(cc(Oc7ccc(C(C)(C)C)cc7)c(c7c(Oc8ccc(C(C)(C)C)cc8)cc(c2c37)C1=O)c64)C1=C(C5=O)c2ccc3ccccc3[n+]2[B-](F)(F)O1 (stereo not given)
absorption maximum (in ClCCl): 616 nm

CC1(C)CC(/N=C/c2ccc3ccc4cccc5ccc2c3c45)CC(C)(C)N1[O]
absorption maximum (in C1CCCCC1): 360 nm | absorption maximum (in CC#N): 359 nm | absorption maximum (in CO): 359 nm | absorption maximum (in ClC(Cl)Cl): 362 nm

O=C(O)COc1cccc(-c2c3nc(cc4ccc([nH]4)c(-c4cccc(OCC(=O)O)c4)c4nc(cc5ccc2[nH]5)CC4)CC3)c1
absorption maximum (in CS(C)=O): 736 nm

CC(C)(C)c1ccc2c(c1)oc1nc3oc4ccc(-n5c6ccccc6c6ccccc65)cc4c3cc12
absorption maximum (in ClC(Cl)Cl): 350 nm

N=c1oc2cccc3c4c(-c5ccccc5)oc5cccc(c(c1-c1ccccc1)c23)c54
absorption maximum (in ClC(Cl)Cl): 397 nm

CN(C)c1cc(-c2ccc(C#Cc3ccccc3)cc2)cc2ccccc12
absorption maximum (in CC#N): 302.58 nm | absorption maximum (in CCO): 300.29 nm | absorption maximum (in ClCCl): 304 nm

Cc1ccc2occ(CC(=O)NN)c2c1
absorption maximum (in C1CCOC1): 292 nm | absorption maximum (in CC#N): 289 nm | absorption maximum (in CC(C)=O): 293 nm | absorption maximum (in CCCCO): 290 nm | absorption maximum (in CCCO): 281 nm | absorption maximum (in CCO): 283 nm | absorption maximum (in CCOC(C)=O): 296 nm | absorption maximum (in CN(C)C=O): 313 nm | absorption maximum (in CO): 279 nm | absorption maximum (in ClCCl): 284 nm

O=C1O/C(=C\c2cccs2)c2ccccc21
absorption maximum (in CC#N): 355 nm

F[B-]1(F)n2c(-c3ccccc3)c3ccc4ccccc4c3c2N=C2c3c(ccc4ccccc34)C(c3ccccc3)=[N+]21
absorption maximum (in ClCCl): 737 nm

C[N+]1=c2ccc3c(c2C(C)(C)CC1)Oc1cc2c(cc1C=3c1ccccc1C(=O)O)C(c1ccccc1C(=O)O)=c1ccc3c(c1O2)C(C)(C)CC[N+]=3C
absorption maximum (in ClC(Cl)Cl): 617 nm

CN(C)c1ccc(-c2nc3nccnc3n2-c2ccc(N(C)C)cc2)cc1
absorption maximum (in CC#N): 371 nm

N#Cc1ncc(-c2c3ccccc3c(-c3cnc(C#N)nc3)c3ccccc23)cn1
absorption maximum (in CCO): 395 nm | absorption maximum (in ClCCl): 397 nm

CC1(C)c2ccccc2-c2cc3c(cc21)N(c1ccc(-c2nc(-c4ccc(N5c6ccccc6C(c6ccccc6)(c6ccccc6)c6cc7c(cc65)C(C)(C)c5ccccc5-7)cc4)nc(-c4ccc(N5c6ccccc6C(c6ccccc6)(c6ccccc6)c6cc7c(cc65)C(C)(C)c5ccccc5-7)cc4)n2)cc1)c1ccccc1C3(c1ccccc1)c1ccccc1
absorption maximum (in Cc1ccccc1): 321 nm

CC1=C(c2cccs2)C(C)=[N+]2C1=C(c1ccccc1)c1c(C)c(-c3cccs3)c(C)n1[B-]2(F)F
absorption maximum (in CO): 521 nm | absorption maximum (in Cc1ccccc1): 530 nm | absorption maximum (in ClCCl): 527 nm

c1ccc(-c2nc(-c3ccc(-c4nc(-c5ccccc5)c(-c5ccccc5)o4)cc3)oc2-c2ccccc2)cc1
absorption maximum (in C1COCCO1): 358 nm

c1cc(-c2ccc3c(c2)CCCO3)ccc1-c1ccc2c(c1)CCCO2
absorption maximum (in C1CCCCC1): 295 nm

CCCCCCN1C(=O)c2cccc3cc(/N=C\c4ccc(N(c5ccccc5)c5ccccc5)cc4)cc(c23)C1=O
absorption maximum (in ClC(Cl)Cl): 380 nm

CCC(C)(C)c1ccc(-c2ccc(-c3ccc(C(C)(C)CC)cc3)cc2)cc1
absorption maximum (in C1COCCO1): 289 nm

Brc1ccc(N(c2ccc(/C=C/c3ccncn3)cc2)c2ccc(/C=C/c3ccncn3)cc2)cc1
absorption maximum (in ClCCl): 417 nm

CN(C)c1ccc(/C=C/C=C/c2ccc(C#N)cc2)cc1
absorption maximum (in CC#N): 402 nm | absorption maximum (in CCCC#N): 410 nm | absorption maximum (in CCCCCC): 400 nm | absorption maximum (in CCOCC): 400 nm

C1=C(c2ccccc2)C2=Nc3c(-c4ccccc4)cc4n3[B-]3(Oc5ccccc5C1=[N+]23)Oc1ccccc1-4 (stereo not given)
absorption maximum (in Cc1ccccc1): 728 nm

C(=C\c1ccc(-c2ccccc2)cc1)/c1ccc(Oc2ccc3ccccc3c2-c2c(Oc3ccc(/C=C/c4ccc(-c5ccccc5)cc4)cc3)ccc3ccccc23)cc1
absorption maximum (in ClCCl): 328 nm

COc1ccc(C#CC2=C3CCc4ccccc4C3=[O+][B-](F)(F)O2)cc1
absorption maximum (in ClCCl): 446 nm
